The text below walks through data of US20180369203A1, “METHODS OF TREATING CANCER BY ADMINISTERING A MEK INHIBITOR IN COMBINATION WITH A PROTEASOME INHIBITOR” (The Jackson Laboratory, priority 2015, published 2018).

Test [1] deals with polyQ79-expressing cells. Briefly: ThT and CR staining of polyQ79-expressing cells (flow cytometry). It counts as cell-based. Particulars: HEK293T; 20 nM AZD6244, 100 nM Bortezomib, or both. As for the experimental part: FIGS. 5A-Y show MEK and proteasome inhibition provoke protein aggregation and amyloidogenesis. (A-B) WM115 cells treated with 20 nM AZD6244, 100 nM Bortezomib, or both for 24 hr were stained with Lys48-specific ubiquitin antibodies. Arrowheads mark ubiquitin-positive aggregates. Scale bar: 10 μm. Amounts of aggregates per cell were quantitated using ImageJ (median, n≥100, ANOVA). (C-F) Following transfection with polyQ79 plasmids alone or with both polyQ79 and HSF1^S326D plasmids for one day, HEK293T cells were treated with inhibitors as described in (A-B). Cells were either analyzed for aggregate size or stained with 10 μM ThT. (G) Treated tumor cell lines were stained with 10 μM ThT. Geometric means were used to calculate fold changes in ThT fluorescence intensity and the log 2(FC) values were presented as a heat map. (H) HEK293T cells were transfected with LacZ or polyQ79 plasmid. Following treatments, AOs were quantitated by ELISA using A11 antibodies (mean±SD, n=3, ANOVA). (I) Intrinsic AOs were detected in human tumor cell lines (mean±SD, n=3, ANOVA). […] Amyloids were quantitated by ELISA (mean±SD, n=3, Student's t-test). […] AF formation was monitored by ThT binding (mean±SD, n=3, ANOVA). […] Amyloids were quantitated (mean±SD, n=3, Student's t-test). […] Viable cells were quantitated by CellTiter® blue (mean±SD, n=6, Student's t-test). […] Viable cells were quantitated (mean±SD, n=6, ANOVA). […]
A general note: Flow cytometry measures light scatter and fluorescence of single cells or particles in a stream.

The test system of test [2] is GR-GFP. Put plainly: GR-GFP protein stability in HEK293T cells (immunoblotting). It counts as cell-based. Particulars: 100 nM Bortezomib, 4 hrs. From the text: This figure is related to FIG. 4. (A) HSF1 stabilizes GR-GFP proteins. Both GR-GFP and HA-Ub-K48 plasmids were co-transfected with LacZ or FLAG-HSF1 plasmids into HEK293T cells stably expressing scramble or HSF1-targeting shRNAs. HA-Ub-K48 plasmids encode a mutant ubiquitin that can be conjugated to protein substrates only via lysine 48. GFP-GR proteins were precipitated and ubiquitination was detected by anti-HA immunoblotting. (B) HSF1 maintains cellular chaperoning capacity. Denatured firefly luciferases were incubated with proteins extracted from HEK293T cells stably expressing scramble or HSF1-targeting shRNAs that were transfected with LacZ or FLAG-HSF1 plasmids (mean±SD, n=5, ANOVA). […] Levels of GFP and GR-GFP proteins were detected by immunoblotting. […] Following treatments with 20 μM U0126, 20 nM AZD6244, or 100 nM Bortezomib for 4 hrs, the chymotrypsin-like, trypsin-like, and caspase-like proteasomal activities in A2058 cells (D) and HEK293T cells (E) were measured in vitro using 25 μM Z-LLL-AMC, Boc-LRR-AMC, and Z-LLE-AMC substrates respectively (mean±SD, n=3, ANOVA). […] Lys48-specific protein ubiquitination was detected by immunoblotting in both detergent-soluble and -insoluble fractions. […] Lys48-specific protein ubiquitination was detected by immunoblotting in both detergent-soluble and -insoluble fractions of HEK293T cells that stably expressed scramble or MEK1/2-targeting shRNAs. […]
On the technique in general: A western blot detects proteins with antibodies after separation by electrophoresis.

Regarding `CC(C)C[C@H](NC(=O)[C@H](Cc1ccccc1)NC(=O)c1cnccn1)B(O)O` [Bortezomib, bortezomib], the “ThT and CR staining of polyQ79-expressing cells” value in test [1] was “further intensified”. In addition, the GR-GFP protein level result in test [2] is given as “caused GR-GFP accumulation”.
